Data reported in US20190031599A1, “INDANE DERIVATIVES AS MGLUR7 MODULATORS” (Takeda Pharmaceutical Company Limited, priority 2016, published 2019).
Counter-ions that a name gives are not always drawn.

Biological target: T1, human mGluR7 (Homo sapiens, UniProt Q14831)
T1 construct: expressed in transfected cells
Test: mGluR7 assay: CRE-directed luciferase reporter gene assay, reduction of forskolin stimulated cAMP production
Format: cell-based
Details: stable CHO cell line expressing the CRE-luc reporter and human mGluR7 genes; decrease of forskolin stimulated luminescence; 10-point concentration-response, duplicate wells
Procedure, shortened: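 Stable CHO cell line co-expressing human mGluR7 and a CRE-luciferase reporter; compounds preincubated 15 min at 37 °C, then forskolin added and incubated 5 h at 37 °C. 10-point half-log concentration-response in duplicate, normalised to forskolin-alone (max) and forskolin plus tool mGluR7 agonist (min) controls.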

T1 sequence (Q14831 35-915): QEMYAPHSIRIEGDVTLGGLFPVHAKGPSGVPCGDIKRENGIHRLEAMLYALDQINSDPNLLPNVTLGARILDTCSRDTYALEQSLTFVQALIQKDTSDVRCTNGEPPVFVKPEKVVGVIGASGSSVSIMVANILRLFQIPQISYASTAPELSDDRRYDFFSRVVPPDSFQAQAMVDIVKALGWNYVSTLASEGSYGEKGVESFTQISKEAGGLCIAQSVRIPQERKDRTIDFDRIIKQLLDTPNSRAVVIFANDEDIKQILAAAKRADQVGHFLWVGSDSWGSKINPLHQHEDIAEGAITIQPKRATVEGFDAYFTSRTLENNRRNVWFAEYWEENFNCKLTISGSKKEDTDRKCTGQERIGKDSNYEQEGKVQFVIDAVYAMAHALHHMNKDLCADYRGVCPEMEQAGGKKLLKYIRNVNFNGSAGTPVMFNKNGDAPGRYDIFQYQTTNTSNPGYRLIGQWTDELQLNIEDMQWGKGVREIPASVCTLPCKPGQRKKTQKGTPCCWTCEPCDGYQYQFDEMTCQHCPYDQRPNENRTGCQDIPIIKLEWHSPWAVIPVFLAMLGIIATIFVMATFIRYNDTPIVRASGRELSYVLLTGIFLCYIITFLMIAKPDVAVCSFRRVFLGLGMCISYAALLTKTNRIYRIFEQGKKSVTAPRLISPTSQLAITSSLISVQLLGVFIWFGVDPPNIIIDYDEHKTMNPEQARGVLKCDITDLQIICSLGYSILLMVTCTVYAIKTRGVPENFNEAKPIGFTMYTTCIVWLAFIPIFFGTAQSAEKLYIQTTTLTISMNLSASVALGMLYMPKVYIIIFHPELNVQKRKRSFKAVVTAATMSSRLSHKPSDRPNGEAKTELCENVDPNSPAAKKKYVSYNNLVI

Row | EC50 | Compound
1 | 1610 nM | C[C@H](C(=O)N[C@H]1Cc2ccccc2[C@@H]1NS(C)(=O)=O)c1ccc(F)cc1F [Example 89, (2S)-2-(2,4-difluorophenyl)-N-[(1S,2S)-1-methanesulfonamido-2,3-dihydro-1H-inden-2-yl]propanamide]
2 | 10 nM | C[C@H](C(=O)N[C@H]1Cc2ccccc2[C@@H]1NCC1CCC1)c1ccc(F)cc1F [Example 90, (2S)—N-[(1S,2S)-1-[(cyclobutylmethyl)amino]-2,3-dihydro-1H-inden-2-yl]-2-(2,4-difluorophenyl)propanamide]
3 | 38 nM | C[C@H](C(=O)N[C@H]1Cc2ccccc2[C@@H]1NC1CCC1)c1ccc(F)cc1F [Example 91, (2S)—N-[(1S,2S)-1-(cyclobutylamino)-2,3-dihydro-1H-inden-2-yl]-2-(2,4-difluorophenyl)propanamide]
4 | 7 nM | C[C@H](C(=O)N[C@H]1Cc2ccccc2[C@@H]1NCc1ncccc1F)c1ccc(F)cc1F [Example 92, (2S)-2-(2,4-difluorophenyl)-N-[(1S,2S)-1-{[(3-fluoropyridin-2-yl)methyl]amino}-2,3-dihydro-1H-inden-2-yl]propanamide]
5 | 46 nM | CC(C)(C)OC(=O)N[C@H]1c2ccccc2C[C@@H]1NC(=O)C1(c2ccc(F)cc2)CCOCC1 [Example 94, tert-butyl N-[(1S,2S)-2-[4-(4-fluorophenyl)oxane-4-amido]-2,3-dihydro-1H-inden-1-yl]carbamate]
6 | 9 nM | CN[C@@H]1c2ccccc2C[C@H]1NC(=O)[C@@H](C)c1ccc(F)cc1 [Example 95, (2S)-2-(4-fluorophenyl)-N-[(1R,2R)-1-(methylamino)-2,3-dihydro-1H-inden-2-yl]propanamide]
7 | 4 nM | COC1c2ccccc2C[C@@H]1NC(=O)[C@@H](NC(=O)C1CCOCC1)c1ccc(F)cc1 (stereo partly drawn) [Example 98, (2S)-2-(4-fluorophenyl)-N-(trans)-(1-methoxy-2,3-dihydro-1H-inden-2-yl)-2-[(oxan-4-yl)formamido]acetamide]
8 | 2190 nM | CC(C)(C(=O)N[C@H]1Cc2ccccc2[C@@H]1N)c1ccc(F)cc1 [Example 99, N-[(1S,2S)-1-amino-2,3-dihydro-1H-inden-2-yl]-2-(4-fluorophenyl)-2-methylpropanamide]
9 | 27 nM | CC(C)(C)OC(=O)N[C@H]1c2ccccc2C[C@@H]1NC(=O)C(c1ccc(F)cc1F)N1CCC1 (stereo partly drawn) [Example 100, tert-butyl N-[(1S,2S)-2-[2-(azetidin-1-yl)-2-(2,4-difluorophenyl)acetamido]-2,3-dihydro-1H-inden-1-yl]carbamate]
10 | 218 nM | N[C@H]1c2ccccc2C[C@@H]1NC(=O)C(c1ccc(F)cc1F)N1CC(F)(F)C1 (stereo partly drawn) [Example 103, N-[(1S,2S)-1-amino-2,3-dihydro-1H-inden-2-yl]-2-(3,3-difluoroazetidin-1-yl)-2-(2,4-difluorophenyl)acetamide formate]
11 | 12 nM | COC1CN(C(C(=O)N[C@H]2Cc3ccccc3[C@@H]2NC(=O)OC(C)(C)C)c2ccc(F)cc2F)C1 (stereo partly drawn) [Example 104, tert-butyl N-[(1S,2S)-2-[2-(2,4-difluorophenyl)-2-(3-methoxyazetidin-1-yl)acetamido]-2,3-dihydro-1H-inden-1-yl]carbamate]

The next lines start with the molecule.

Row | Compound | EC50
12 | C[C@H](C(=O)N[C@H]1Cc2ccccc2[C@@H]1NCC1CC1)c1ccc(F)cc1 [Example 47, (2S)—N-[(1S,2S)-1-[(cyclopropylmethyl)amino]-2,3-dihydro-1H-inden-2-yl]-2-(4-fluorophenyl)propanamide] | 21 nM
13 | CC[C@H](C(=O)N[C@H]1Cc2ccccc2[C@@H]1N)c1ccc(F)cc1 [Example 52, (2S)—N-[(1S,2S)-1-amino-2,3-dihydro-1H-inden-2-yl]-2-(4-fluorophenyl)butanamide] | 53 nM
14 | CC[C@H](C(=O)N[C@@H]1Cc2ccccc2[C@H]1N)c1ccc(F)cc1 [Example 53, (2S)—N-[(1R,2R)-1-amino-2,3-dihydro-1H-inden-2-yl]-2-(4-fluorophenyl)butanamide] | 126 nM
15 | COc1ccc(C(C)C(=O)N[C@H]2Cc3ccccc3[C@@H]2N)cc1 (stereo partly drawn) [Example 57, N-[(1S,2S)-1-amino-2,3-dihydro-1H-inden-2-yl]-2-(4-methoxyphenyl)propanamide hydrochloride] | 2210 nM
16 | CC(C(=O)N[C@H]1Cc2ccccc2[C@@H]1N)c1ccc(C(F)(F)F)cc1 (stereo partly drawn) [Example 58, N-[(1S,2S)-1-amino-2,3-dihydro-1H-inden-2-yl]-2-[4-(trifluoromethyl)phenyl]propanamide hydrochloride] | 1780 nM
17 | C[C@H](C(=O)N[C@H]1Cc2ccccc2[C@@H]1NCC(F)(F)F)c1ccc(F)cc1F [Example 59, (2S)-2-(2,4-difluorophenyl)-N-[(1S,2S)-1-[(2,2,2-trifluoroethyl)amino]-2,3-dihydro-1H-inden-2-yl]propanamide] | 7 nM
18 | CN[C@H]1c2ccccc2C[C@@H]1NC(=O)[C@@H](C)c1ccc(F)cc1 [Example 64, (2S)-2-(4-fluorophenyl)-N-[(1S,2S)-1-(methylamino)-2,3-dihydro-1H-inden-2-yl]propanamide] | 45 nM
19 | C[C@H](C(=O)N[C@H]1Cc2ccccc2[C@@H]1N(C)C)c1ccc(F)cc1 [Example 74, (2S)—N-(trans)-[1-(dimethylamino)-2,3-dihydro-1H-inden-2-yl]-2-(4-fluorophenyl)propanamide] | 94 nM
20 | CC(F)(C(=O)N[C@H]1Cc2ccccc2[C@@H]1N)c1ccc(F)cc1 (stereo partly drawn) [Example 75, N-[(1S,2S)-1-amino-2,3-dihydro-1H-inden-2-yl]-2-fluoro-2-(4-fluorophenyl)propanamide] | 320 nM
21 | N[C@H]1c2ccccc2C[C@@H]1NC(=O)C1(c2ccccc2Cl)CC1 [Example 79, N-[(1S,2S)-1-amino-2,3-dihydro-1H-inden-2-yl]-1-(2-chlorophenyl)cyclopropane-1-carboxamide] | 440 nM
22 | CC(=O)N[C@H]1c2ccccc2C[C@@H]1NC(=O)[C@@H](C)c1ccc(F)cc1F [Example 80, (2S)-2-(2,4-difluorophenyl)-N-[(1S,2S)-1-acetamido-2,3-dihydro-1H-inden-2-yl]propanamide] | 814 nM
23 | COC1c2ccccc2C[C@@H]1NC(=O)[C@@H](NS(=O)(=O)c1c(C)noc1C)c1ccc(F)cc1 (stereo partly drawn) [Example 83, (2S)-2-(3,5-dimethyl-1,2-isoxazole-4-sulfonamido)-2-(4-fluorophenyl)-N-((trans)-1-methoxy-2,3-dihydro-1H-inden-2-yl)acetamide] | 26 nM
24 | N[C@H]1c2ccccc2C[C@@H]1NC(=O)C(c1ccc(F)cc1)C1CC1 (stereo partly drawn) [Example 86, N-[(1S,2S)-1-amino-2,3-dihydro-1H-inden-2-yl]-2-cyclopropyl-2-(4-fluorophenyl)acetamide] | 721 nM
25 | CC(C)(C)OC(=O)N[C@H]1c2ccccc2C[C@@H]1NC(=O)C(C)(C)c1ccc(F)cc1 [Example 87, tert-butyl N-[(1S,2S)-2-[2-(4-fluorophenyl)-2-methylpropanamido]-2,3-dihydro-1H-inden-1-yl]carbamate] | 582 nM
26 | CC(C)(C)OC(=O)N[C@H]1c2ccccc2C[C@@H]1NC(=O)C1(c2ccccc2)COC1 [Example 88, tert-butyl N-[(1S,2S)-2-(3-phenyloxetane-3-amido)-2,3-dihydro-1H-inden-1-yl]carbamate] | 53 nM
